# Publication PMC10376999 (Biomedicines, 2023)
# Where “and” joins values, the source holds several entries; their conditions need not be identical. Equal entries are not always repeated. Where two headings read alike, the source gives them in different places.
# Tests used:
# MDR1 [1] = test: Quantitative measurement of MDR1 expression by sandwich ELISA; format: cell-based, human; conditions: RPTECs, tariquidar 50 µg/mL, static and dynamic conditions
# Protocol: To measure the amount of MDR1 expressed in different conditions, a sandwich enzyme-linked immunosorbent assay (ELISA) kit for MDR1 (antibodies-online, Aachen, Germany) was used. After each experiment, lysed cells were centrifuged at 5000× g for 5 min (at 4 °C); then, the supernatant was collected for ELISA [27]. For each experimental condition, three samples were prepared, with each sample measured in duplicates.
# The amount of MDR1 expressed in the cell-based artificial proximal tubule was measured by the ELISA quantitative measurement.
# To confirm, we performed the Student’s t-test; there is no significant difference in the mean values of MDR1 concentration in different conditions.
# MDR1 [2] = system: MDR1; parameters: method as in PMID 28487651; conditions: tariquidar in interaction with MDR1; read-out: KI (inhibition constant); cited from earlier work
# [3] = system: COC(=O)c1ccccc1-c1c2ccc(=N)cc-2oc2cc(N)ccc12
# Excerpt: (3) V=Vmax[S]^n/Km^n+[S]^n
# (§1) In this equation, V is the substrate transport velocity in static conditions, [S] is the substrate (R123) concentration, Vmax is the maximum velocity of R123 transport, Km is Michaelis–Menten constant, and n is the Hill slope or degree, which usually explains the cooperative behavior in substance transport. It should be noted that, in this definition, Km = [S] when V = 0.5 Vmax.
# (§2) It is assumed that when the inhibitor is present, any R123 molecule that passed through the membrane passed by means of passive transport [29]. […] (R123 concentration) curve was plotted (Figure 8) using online monitoring results, providing the R123 concentration.
# MDR1 [4] = conditions: cited from earlier work
# MDR1 [5] = target: MDR1 (Homo sapiens, UniProt P08183); test: Kinetic characterization (Hill fit) of MDR1-mediated R123 transport above the artificial tubular barrier
# Sequence of MDR1 (Homo sapiens, UniProt P08183) (P08183 whole entry): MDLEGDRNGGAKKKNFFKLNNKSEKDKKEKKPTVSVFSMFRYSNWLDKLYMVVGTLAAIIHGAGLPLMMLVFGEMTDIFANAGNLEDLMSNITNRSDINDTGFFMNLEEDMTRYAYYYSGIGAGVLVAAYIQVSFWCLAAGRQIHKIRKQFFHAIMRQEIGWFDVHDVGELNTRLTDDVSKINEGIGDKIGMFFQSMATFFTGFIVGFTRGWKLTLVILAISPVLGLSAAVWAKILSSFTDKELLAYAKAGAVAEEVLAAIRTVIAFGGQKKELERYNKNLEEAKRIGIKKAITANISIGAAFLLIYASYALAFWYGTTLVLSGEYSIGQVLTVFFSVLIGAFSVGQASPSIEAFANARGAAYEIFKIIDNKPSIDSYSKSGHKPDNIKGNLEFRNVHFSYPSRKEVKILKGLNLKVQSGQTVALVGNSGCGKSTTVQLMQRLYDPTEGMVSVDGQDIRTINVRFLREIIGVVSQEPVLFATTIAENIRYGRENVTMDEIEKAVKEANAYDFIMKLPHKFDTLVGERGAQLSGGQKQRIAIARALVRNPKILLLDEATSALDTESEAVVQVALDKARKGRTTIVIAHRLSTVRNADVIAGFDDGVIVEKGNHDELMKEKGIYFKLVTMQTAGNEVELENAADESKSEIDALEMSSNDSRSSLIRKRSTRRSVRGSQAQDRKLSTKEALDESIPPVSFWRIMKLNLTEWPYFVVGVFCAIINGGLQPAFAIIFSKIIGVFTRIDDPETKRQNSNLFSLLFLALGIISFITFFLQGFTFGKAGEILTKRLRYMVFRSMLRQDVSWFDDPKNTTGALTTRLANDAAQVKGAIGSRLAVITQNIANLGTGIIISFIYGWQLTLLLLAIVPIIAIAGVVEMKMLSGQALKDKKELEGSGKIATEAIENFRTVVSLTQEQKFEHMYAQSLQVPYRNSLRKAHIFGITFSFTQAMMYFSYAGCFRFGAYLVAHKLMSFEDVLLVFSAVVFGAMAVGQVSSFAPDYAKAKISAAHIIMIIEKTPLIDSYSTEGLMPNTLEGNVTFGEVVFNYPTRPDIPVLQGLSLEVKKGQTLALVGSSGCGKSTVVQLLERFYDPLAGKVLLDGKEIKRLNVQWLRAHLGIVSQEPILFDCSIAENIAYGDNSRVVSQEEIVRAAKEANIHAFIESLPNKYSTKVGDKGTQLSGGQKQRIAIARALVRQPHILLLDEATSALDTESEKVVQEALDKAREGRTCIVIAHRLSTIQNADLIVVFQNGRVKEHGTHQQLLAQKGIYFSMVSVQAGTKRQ
# Excerpt: (3) V=Vmax[S]^n/Km^n+[S]^n
# as §1, §2
# OAT1 = system: OAT1; parameters: method as in PMID 23140242, PMID 22470447; conditions: OAT1-mediated transport, Michaelis–Menten model; cited from earlier work
# [6] = system: RPTEC/TERT1 artificial tubular barrier; conditions: human
# Protocol: (§3) Experiments were performed using an immortalized human renal proximal tubular epithelial cell line (RPTEC/TERT1) [21], which was supplied by Evercyte GmbH (Vienna, Austria). […] To bring these cells into culture 0.6 × 10^5 cells were seeded onto 24-well plates Thincert Transwell inserts (0.33 cm^2, 0.4 µm pore size; Greiner Bio-one) and further cultured in ProxUp Basal Medium (Evercyte, Austria). The cells were cultured on Thincert inserts (Greiner Bio-one, Frickenhausen, Germany) for at least 8 days to ensure the formation of a confluent cell monolayer. The cell layer integrity was confirmed by measuring the trans-epithelial electrical resistance (TEER) with an epithelial volt-ohm-meter (EVOM, Millicel, Darmstadt, Germany). Transwell inserts were used for transport experiments when TEER values exceeded 150 Ω × cm^2.
# (§4) The transport of R123 and HSA-647 across the tubular barrier was carried out under static and dynamic cultivation conditions. The static conditions were carried out by placing the Transwell^TM inserts on a well plate, with no pressure or flow applied.
# (§5) Fluorescence intensity at the beginning and end of the experiments was measured using a microplate reader (Tecan Infinite Pro, Tecan Group, Switzerland), and a miniaturized fluorescence reader (Fluo Sens Integrated, Qiagen, Hilden, Germany) was used for online monitoring. […] Using the calibration curves, the fluorescent intensity (FU) results were converted to concentration (µM).
# (§6) During the transport assays, the decrease in the fluorescence intensity in the artificial microfluidic channels mimicking the peritubular capillary structures (in the well, see Figure 2; compartment 7) was measured constantly. R123 (2 μM) and HSA-647 (0.6 µM) were added to the cell culture medium and to the microfluidic channel (Figure 2), and a Transwell insert populated with cells (compartment 4 in Figure 2).
# (§7) The whole system was then placed on the Qiagen fluorescence meter in such a way that only the fluorescence signal of the cell culture medium in the channels (compartment 1 in Figure 2) was measured every 120 s for maximum 48 h. Cell-free Transwell^TM inserts were used as a control. Transport assay experiments for each condition were performed and measured in triplicates.
# [7] = system: RPTEC/TERT1 artificial tubular barrier; test: Transport assay of R123 and HSA-647 across the artificial tubular barrier on Transwell inserts, static and in the microphysiological system (pressure, flow); conditions: for Concentration of R123 in the peritubular capillary after 48 h: start 2 µM
# Protocol: as §3, §4, §5, §6, §7
# [8] = absence of inhibitor, static, from the literature
compound,measurement,setting,value
COc1cc2c(cc1OC)CN(CCc1ccc(NC(=O)c3cc(OC)c(OC)cc3NC(=O)c3cnc4ccccc4c3)cc1)CC2 [tariquidar],Effect on the level of MDR1 protein (ELISA),MDR1 [1],did not affect the level of MDR1 protein
same,Ki,MDR1 [2],0.32 nM
MDR1 (Homo sapiens),Km,[3],17.47 ± 8 µM
"COC(=O)c1ccccc1-c1c2ccc(=N)cc-2oc2cc(N)ccc12 [R123, Rhodamine 123]",Km,"MDR1 [4]; MDR1-mediated transport, Michaelis–Menten model",17.5 ± 2.8 µM
same,Km,MDR1 [4]; [8],~17.5 µM
same,Vmax,MDR1 [4]; [8],0.0525 pmol/min and 0.0525 [22] pmol/min
same,Km,"MDR1 [4]; presence of inhibitor (non-competitive, Km unchanged), static, from the literature",~17.5 µM
same,n (Hill slope),"MDR1 [4]; presence of inhibitor, static, from the literature","2 [22, 28]"
same,"Active transport rate of R123, JR123AT,flow","MDR1 [5]; 0.13 µL/s flow, total minus passive transport rate",0.048 pmol/min
same,"Active transport rate of R123, JR123AT,pressure","MDR1 [5]; 5 mbar pressure, total minus passive transport rate",0.042 pmol/min
same,n (Hill slope),"MDR1 [5]; absence of inhibitor, static, present study",2
same,V'max,"MDR1 [5]; presence of tariquidar, static, calculated from Vmax/(1+[I]/KI) with literature KI = 0.32 nM (ref 32)",2.18 × 10^−7 pmol/min and 2.18 × 10^−7 (from Equation (3)) [32] pmol/min
same,V'max,"MDR1 [5]; presence of tariquidar, static, from curve fitting, present study",1.25 × 10^−7 ± 3 × 10^−9 pmol/min and 1.25 × 10^−7 ± 3 × 10^−9 (from curve fitting) pmol/min
same,n (Hill slope),"MDR1 [5]; presence of tariquidar, static, present study",2
same,"Active transport rate of R123, JR123AT,static","MDR1 [5]; static, total minus passive transport rate",0.038 pmol/min
same,Km,OAT1,0.3 ± 0.1 µM
same,"Passive transport of R123, JR123,F,PT, calculated from equation",[6],0.026 pmol/min
same,"Passive transport of R123, JR123,P,PT, calculated from equation",[6],0.0102 pmol/min
same,Passive permeability P,[6]; 2 µM,1.5e-08 L/min
same,Rdiffflow (effect of flow on total transport compared to static),[6]; 2 µM,0.0434 pmol/min
same,Rdiffpressure (effect of pressure on total transport compared to static),[6]; 2 µM,0.0009 pmol/min
same,"Total transport rate of R123, JR123flow",[6]; 2 µM,0.112 pmol/min
same,"Total transport rate of R123, JR123pressure",[6]; 2 µM,0.069 pmol/min
same,"Total transport rate of R123, JR123static",[6]; 2 µM,0.068 pmol/min
same,Sieving coefficient θ,"[6]; 48 h, 2 µM",0.22
same,Concentration of R123 in the peritubular capillary after 48 h,"[7]; 0.13 µL/s flow, no tariquidar",600 nM
same,Concentration of R123 in the peritubular capillary after 48 h,"[7]; 5 mbar pressure, no tariquidar",1100 nM
same,"AVG R123 conc. In well, fluorescence endpoint after 48 hours",[7]; flow,0.92 µM
same,"AVG R123 conc. In well, fluorescence endpoint after 48 hours",[7]; flow inhibited,0.25 µM
same,"AVG R123 conc. In well, fluorescence endpoint after 48 hours",[7]; pressure,0.68 µM
same,"AVG R123 conc. In well, fluorescence endpoint after 48 hours",[7]; pressure inhibited,0.24 µM
same,"AVG R123 conc. In well, fluorescence endpoint after 48 hours",[7]; static inhibited,0.22 µM
same,Concentration of R123 in the peritubular capillary after 48 h,"[7]; static, no tariquidar",1500 nM
same,Concentration of R123 in the peritubular capillary after 48 h,"[7]; static, tariquidar present",1700 nM
